Experimental data reported in article PMC6557900 (Nature Communications, 2019).
Where two headings read alike, the source gives them in different places. Where a SMILES comes first, the peptide text is derived from it. [ ]: non-standard residue; d: D form. pY = N[C@@H](Cc1ccc(OP(=O)(O)O)cc1)C(=O)O

How the values were obtained:
[1] = target: T1, wild-type SBC (SOCS2-ElonginB-ElonginC) (Homo sapiens, UniProt O14508+Q15369+Q15370); experiment: SPR direct binding, wild-type SBC immobilized on the chip; details: mean ± s.e.m., four independent experiments
T1 construct: His6 (N, cleaved yes); made in house; host or cells: E. coli BL21(DE3)
Method: (§1) Biotinylated wild-type SBC and mutants were immobilized onto a chip surface and injected a series of seven concentrations (0.08, 0.25, 0.7, 2.2, 6.7, 20 and 60 μM) of peptide across the sensor surface for 60 s contact time and 120 sec dissociation time at 30 μl min^−1 flow rate. Data analysis was carried out using Biacore Evaluation Software (GE Healthcare). All data were double-referenced for reference surface and blank injection. The processed sensograms were fit to a steady-state affinity using a 1:1 binding model for KD estimation (raw data shown in Supplementary Figs. 10–15).

[2] = target: SBC (SOCS2-ElonginB-ElonginC) (Homo sapiens, UniProt O14508+Q15369+Q15370); experiment: 19F ligand-observed CPMG NMR displacement of spy molecule 3
Description: In the ^19F NMR displacement assay, the fluorine signal of a purposely-designed reporter ligand (also referred to as spy molecule) was monitored as a mean to quantify the extent of the competition between the tested peptides and the spy molecule. A Carr-Purcell-Meiboom-Gill (CPMG) pulse sequence was applied to estimate the spin–spin relaxation time (T2) of the spy molecule in the absence and presence of protein[43]–[45]. By adding competitor to disrupt the protein-spy interaction, the binding affinity of a competitor can be calculated based on the degree of displacement of the spy[46],[47].
All NMR experiments were conducted using AV-500 MHz Bruker spectrometer equipped with a 5 mm CPQCI 1H/19F/13C/15N/D Z-GRD cryoprobe) at 298 K. Spectra were recorded using 80 scans of a CPMG pulse sequence that attenuates broad resonances. […] The transmitter frequency was placed close to the resonance of O1 = −35451 Hz (−75.3 ppm). […] All NMR data were processed and analyzed using TopSpin (Bruker).
The dissociation constant of peptides (Ki) was calculated by adapting the method described by Wang et al.[47] Briefly, peptides’ Ki values were obtained from the equation below:1 Ki=([P0]-[PI]-[PL])([I0]-[PI])/[PI] where [I0] and [P0] are the total concentrations of the competitor (peptide inhibitor) and protein, respectively, used in the experiment, while [PI] and [PL] are the free concentrations of protein–peptide and protein–spy complexes, which are unknown.
To determine [PL] the following equation was used:2 IF-II/IF-IP=[PL]/[PL0] where IF is the measured integral of the fluorine peak of the spy molecule free in solution; IP is the integral of the same signal in the presence of protein; II is the integral of the same signal in the presence of protein and competing peptide; and [PL0] is the concentration of protein-spy complex in the absence of competitor, which was calculated using the following equation:3 [PL0]=[P0]+[L0]+KD-([P0]+[L0]+KD)^2-4[P0][L0]/2 where [L0] is the total concentrations of spy molecule used in the experiment, and KD is the dissociation constant of the protein-spy complex (determined by ITC). To determine [PI] the following equation was used: 4 [PL]=[P0]+[L0]+KD-[PI]-([P0]+[L0]+KD-[PI])^2-4([P0]-[PI])[L0]/2 where [PL] was determined as described above (Equation 2).

[3] = target: T2, SOCS2-EloB-EloC ternary (SBC) complex (Homo sapiens, UniProt O14508+Q15369+Q15370); experiment: Isothermal titration calorimetry (ITC), ligand titrated into SBC; assay type: binding
T2 construct: His6 (N, cleaved yes); made in house; host or cells: E. coli BL21(DE3)
Method: The ITC titration consisted of 0.4 μl initial injection (discarded during data analysis) followed by 19 of 2 μl injections at 120 s interval between injections. […] Binding data was subtracted from a control titration where peptide was titrated into buffer, and fitted using a one-set-of-site binding model to obtain dissociation constants, binding enthalpy (ΔH), and stoichiometry (N) using MicroCal ITC-ORIGIN Analysis Software 7.0 (Malvern).

SBC with SOCS2 L106V = target: T3, SBC with SOCS2 L106V (Homo sapiens, UniProt O14508+Q15369+Q15370, L106V); experiment: SPR, SNP mutant SBC immobilized; assay type: binding; details: read-out: SPR dissociation constant KD
T3 construct: His6 (N, cleaved yes); made in house; host or cells: E. coli BL21(DE3)
Method: (§2) Protein expression was induced with isopropyl β-d-1-thiogalactopyranoside at 18 °C for 12 h. […] SBC was finally purified by size-exclusion chromatography on a Superdex 75 16/600 column (GE Healthcare) in 25 mM HEPES, pH 7.5, 250 mM NaCl and 10 mM DTT.
as §1

SBC with SOCS2 N94D = target: T4, SBC with SOCS2 N94D (Homo sapiens, UniProt O14508+Q15369+Q15370, N94D); experiment: SPR, SNP mutant SBC immobilized; assay type: binding; details: source data of Table 3, N94D
T4 construct: His6 (N, cleaved yes); made in house; host or cells: E. coli BL21(DE3)
Method: as §2, §1

SBC with SOCS2 R96L = target: T5, SBC with SOCS2 R96L (Homo sapiens, UniProt O14508+Q15369+Q15370, R96L); experiment: SPR, SNP mutant SBC immobilized; assay type: binding; details: for SPR KD: source data of Table 3, R96L
T5 construct: His6 (N, cleaved yes); made in house; host or cells: E. coli BL21(DE3)
Method: as §2, §1

SBC with SOCS2 R96Q = target: T6, SBC with SOCS2 R96Q (Homo sapiens, UniProt O14508+Q15369+Q15370, R96Q); experiment: SPR, SNP mutant SBC immobilized; assay type: binding; details: for SPR KD: source data of Table 3, R96Q
T6 construct: His6 (N, cleaved yes); made in house; host or cells: E. coli BL21(DE3)
Method: as §2, §1

[4] = Table 2, biotinylated wild-type SBC immobilized, peptide 0.08-60 μM, 20 mM HEPES pH7.5, 150 mM NaCl, 1 mM TCEP, 0.005% Tween20, 10 °C, steady-state 1:1 model, read-out: SPR KD
[5] = read-out: SPR dissociation constant KD

T1 sequence (O14508 32-198): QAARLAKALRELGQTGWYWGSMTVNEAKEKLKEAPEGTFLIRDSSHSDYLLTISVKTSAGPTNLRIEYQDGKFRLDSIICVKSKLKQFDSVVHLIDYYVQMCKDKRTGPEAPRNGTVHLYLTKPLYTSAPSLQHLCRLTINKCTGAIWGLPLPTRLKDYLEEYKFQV
T1 sequence (Q15370 1-104 partner limits assumed): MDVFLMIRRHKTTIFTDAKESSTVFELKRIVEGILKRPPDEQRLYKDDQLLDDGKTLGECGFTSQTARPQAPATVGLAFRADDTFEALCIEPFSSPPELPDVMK
T1 sequence (Q15369 17-112 partner limits assumed): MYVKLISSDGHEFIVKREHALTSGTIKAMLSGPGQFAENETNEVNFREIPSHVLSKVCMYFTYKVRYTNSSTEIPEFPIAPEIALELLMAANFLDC
Chain of SBC (SOCS2-ElonginB-ElonginC) (O14508 32-198): as the sequence (O14508 32-198) above
Chain of SBC (SOCS2-ElonginB-ElonginC) (Q15370 1-104 partner limits assumed): as the sequence (Q15370 1-104 partner limits assumed) above
Chain of SBC (SOCS2-ElonginB-ElonginC) (Q15369 17-112 partner limits assumed): as the sequence (Q15369 17-112 partner limits assumed) above
T4 sequence (O14508 32-198 N94D): as the sequence (O14508 32-198) above, with N63D counted along it
T4 sequence (Q15370 1-104 partner limits assumed): as the sequence (Q15370 1-104 partner limits assumed) above
T4 sequence (Q15369 17-112 partner limits assumed): as the sequence (Q15369 17-112 partner limits assumed) above
T5 sequence (O14508 32-198 R96L): as the sequence (O14508 32-198) above, with R65L counted along it
T5 sequence (Q15370 1-104 partner limits assumed): as the sequence (Q15370 1-104 partner limits assumed) above
T5 sequence (Q15369 17-112 partner limits assumed): as the sequence (Q15369 17-112 partner limits assumed) above
T6 sequence (O14508 32-198 R96Q): as the sequence (O14508 32-198) above, with R65Q counted along it
T6 sequence (Q15370 1-104 partner limits assumed): as the sequence (Q15370 1-104 partner limits assumed) above
T6 sequence (Q15369 17-112 partner limits assumed): as the sequence (Q15369 17-112 partner limits assumed) above
T2 sequence (O14508 32-198): as the sequence (O14508 32-198) above
T2 sequence (Q15370 1-104 partner limits assumed): as the sequence (Q15370 1-104 partner limits assumed) above
T2 sequence (Q15369 17-112 partner limits assumed): as the sequence (Q15369 17-112 partner limits assumed) above
T3 sequence (O14508 32-198 L106V): as the sequence (O14508 32-198) above, with L75V counted along it
T3 sequence (Q15370 1-104 partner limits assumed): as the sequence (Q15370 1-104 partner limits assumed) above
T3 sequence (Q15369 17-112 partner limits assumed): as the sequence (Q15369 17-112 partner limits assumed) above

CC[C@H](C)[C@H](NC(=O)[C@@H](NC(=O)[C@H](Cc1ccc(OP(=O)(O)O)cc1)NC(=O)[C@H](C)NC(=O)[C@H](Cc1ccccc1)NC(=O)[C@H](CO)NC(=O)[C@H](C)N)[C@@H](C)O)C(=O)N[C@@H](CC(C)C)C(=O)N[C@@H](CC(=O)O)C(=O)N1CCC[C@H]1C(=O)N[C@@H](CO)C(N)=O [ASFApYTILDPS] (H-ASFA[pY]TILDPS-NH2)
Kd [1, 4]: 21.7 ± 1.49 µM

CC(C)C[C@H](NC(=O)[C@H](C)NC(=O)[C@@H](NC(=O)[C@H](Cc1ccc(OP(=O)(O)O)cc1)NC(=O)[C@H](CCC(=O)O)NC(=O)[C@H](Cc1ccccc1)NC(=O)[C@H](CO)NC(=O)[C@H](C)N)[C@@H](C)O)C(=O)N[C@@H](CC(=O)O)C(=O)N1CCC[C@H]1C(=O)N[C@@H](CO)C(N)=O [ASFEpYTALDPS] (H-ASFE[pY]TALDPS-NH2)
Ki [2]: 17.2 ± 0.89 µM

CC[C@H](C)[C@H](NC(=O)[C@@H](NC(=O)[C@H](Cc1ccc(OP(=O)(O)O)cc1)NC(=O)[C@H](CCC(=O)O)NC(=O)[C@H](Cc1ccccc1)NC(=O)[C@H](CO)NC(=O)[C@H](C)N)[C@@H](C)O)C(=O)N[C@@H](CC(C)C)C(=O)N[C@@H](C)C(=O)N1CCC[C@H]1C(=O)N[C@@H](CO)C(N)=O [ASFEpYTILAPS] (H-ASFE[pY]TILAPS-NH2)
Kd [1, 4]: 18 ± 0.91 µM
Ki [2]: 14.1 ± 1.74 µM

CC[C@H](C)[C@H](NC(=O)[C@@H](NC(=O)[C@H](Cc1ccc(OP(=O)(O)O)cc1)NC(=O)[C@H](CCC(=O)O)NC(=O)[C@H](Cc1ccccc1)NC(=O)[C@H](CO)NC(=O)[C@H](C)N)[C@@H](C)O)C(=O)N[C@@H](CC(C)C)C(=O)N[C@@H](CC(=O)O)C(=O)N[C@@H](C)C(=O)N[C@@H](CO)C(N)=O [ASFEpYTILDAS] (H-ASFE[pY]TILDAS-NH2)
Kd [1, 4]: 8.9 ± 1.25 µM
Ki [2]: 6.9 ± 1.39 µM

CC[C@H](C)[C@H](NC(=O)[C@H](CO)NC(=O)[C@@H](NC(=O)[C@H](Cc1ccc(OP(=O)(O)O)cc1)NC(=O)[C@H](CC(=O)O)NC(=O)[C@@H]1CCCN1C(=O)[C@@H](NC(=O)[C@H](C)N)C(C)C)[C@@H](C)O)C(=O)N[C@@H](Cc1c[nH]cn1)C(=O)N[C@H](C(=O)N[C@H](C(N)=O)C(C)C)[C@@H](C)CC [AVPDpYTSIHIV]
Ki [2]: 0.9 ± 0.17 µM

CC[C@H](C)[C@H](NC(=O)[C@H](CC(=O)O)NC(=O)[C@H](CO)NC(=O)[C@@H](NC(=O)[C@H](CCC(N)=O)NC(=O)[C@H](C)NC(=O)[C@H](Cc1ccc(OP(=O)(O)O)cc1)NC(=O)[C@H](Cc1ccccc1)NC(=O)[C@H](CC(=O)O)NC(=O)[C@@H](NC(=O)[C@@H](N)CC(N)=O)[C@@H](C)CC)C(C)C)C(N)=O [GHR_pY487] (H-NIDF[pY]AQVSDI-NH2)
Kd [3]: 2.3 µM
Kd ([1]; Table 3, wild-type SOCS2 (SBC), 10 °C, read-out: SPR dissociation constant KD): 5.1 ± 0.77 µM
Kd (SBC with SOCS2 L106V): 8.9 ± 0.7 µM
SPR KD (SBC with SOCS2 N94D; replicate 1): weak
SPR KD (SBC with SOCS2 N94D; replicate 2): weak
SPR KD (SBC with SOCS2 N94D; replicate 3): weak
SPR KD (SBC with SOCS2 N94D; replicate 4): weak
Kd (SBC with SOCS2 R96L; [5]): > 60 µM
SPR KD (SBC with SOCS2 R96L; replicate 1): weak
SPR KD (SBC with SOCS2 R96L; replicate 2): weak
SPR KD (SBC with SOCS2 R96L; replicate 3): weak
SPR KD (SBC with SOCS2 R96L; replicate 4): weak
Kd (SBC with SOCS2 R96Q; [5]): > 60 µM
SPR KD (SBC with SOCS2 R96Q; replicate 1): nb
SPR KD (SBC with SOCS2 R96Q; replicate 2): nb
SPR KD (SBC with SOCS2 R96Q; replicate 3): nb
SPR KD (SBC with SOCS2 R96Q; replicate 4): nb

CC[C@H](C)[C@H](NC(=O)[C@H](CO)NC(=O)[C@@H](NC(=O)[C@H](Cc1ccc(OP(=O)(O)O)cc1)NC(=O)[C@H](CC(=O)O)NC(=O)[C@@H]1CCCN1C(=O)[C@H](C)NC(=O)[C@@H]1CCCN1)[C@@H](C)O)C(=O)N[C@@H](Cc1c[nH]cn1)C(=O)N[C@H](C(=O)N[C@H](C(N)=O)C(C)C)[C@@H](C)CC [PAPDpYTSIHIV]
Ki [2]: 3.4 ± 0.25 µM

CC[C@H](C)[C@H](NC(=O)[C@H](CO)NC(=O)[C@H](C)NC(=O)[C@H](Cc1ccc(OP(=O)(O)O)cc1)NC(=O)[C@H](CC(=O)O)NC(=O)[C@@H]1CCCN1C(=O)[C@@H](NC(=O)[C@@H]1CCCN1)C(C)C)C(=O)N[C@@H](Cc1c[nH]cn1)C(=O)N[C@H](C(=O)N[C@H](C(N)=O)C(C)C)[C@@H](C)CC [PVPDpYASIHIV] (H-PVPD[pY]ASIHIV-NH2)
Kd [1, 4]: 1 ± 0.09 µM
Ki [2]: 0.5 ± 0.07 µM

CC[C@H](C)[C@H](NC(=O)[C@H](Cc1c[nH]cn1)NC(=O)[C@H](C)NC(=O)[C@H](CO)NC(=O)[C@@H](NC(=O)[C@H](Cc1ccc(OP(=O)(O)O)cc1)NC(=O)[C@H](CC(=O)O)NC(=O)[C@@H]1CCCN1C(=O)[C@@H](NC(=O)[C@@H]1CCCN1)C(C)C)[C@@H](C)O)C(=O)N[C@H](C(N)=O)C(C)C [PVPDpYTSAHIV] (H-PVPD[pY]TSAHIV-NH2)
Ki [2]: 3.4 ± 0.66 µM

CC[C@H](C)[C@H](NC(=O)[C@H](C)NC(=O)[C@@H](NC(=O)[C@H](CO)NC(=O)[C@@H](NC(=O)[C@H](Cc1ccc(OP(=O)(O)O)cc1)NC(=O)[C@H](CC(=O)O)NC(=O)[C@@H]1CCCN1C(=O)[C@@H](NC(=O)[C@@H]1CCCN1)C(C)C)[C@@H](C)O)[C@@H](C)CC)C(=O)N[C@H](C(N)=O)C(C)C [PVPDpYTSIAIV] (H-PVPD[pY]TSIAIV-NH2)
Kd [1, 4]: 6.7 ± 0.78 µM

CC[C@H](C)[C@H](NC(=O)[C@H](Cc1c[nH]cn1)NC(=O)[C@@H](NC(=O)[C@H](CO)NC(=O)[C@@H](NC(=O)[C@H](Cc1ccc(OP(=O)(O)O)cc1)NC(=O)[C@H](CC(=O)O)NC(=O)[C@@H]1CCCN1C(=O)[C@@H](NC(=O)[C@@H]1CCCN1)C(C)C)[C@@H](C)O)[C@@H](C)CC)C(=O)N[C@@H](C)C(N)=O [PVPDpYTSIHIA]
Kd [1, 4]: 1.9 ± 0.09 µM

CC[C@H](C)[C@H](NC(=O)[C@H](CO)NC(=O)[C@@H](NC(=O)[C@H](Cc1ccc(OP(=O)(O)O)cc1)NC(=O)[C@H](CC(=O)O)NC(=O)[C@@H]1CCCN1C(=O)[C@H](CCCNC(=N)N)NC(=O)[C@@H]1CCCN1)[C@@H](C)O)C(=O)N[C@@H](Cc1c[nH]cn1)C(=O)N[C@H](C(=O)N[C@H](C(N)=O)C(C)C)[C@@H](C)CC [V(−3)R] (H-PRPD[pY]TSIHIV-NH2)
Kd [1, 4]: 9 ± 1.05 µM

CC[C@H](C)[C@H](NC(=O)[C@H](CO)NC(=O)[C@@H](NC(=O)[C@H](Cc1ccc(OP(=O)(O)O)cc1)NC(=O)[C@H](CC(=O)O)NC(=O)[C@@H]1CCCN1C(=O)[C@H](Cc1ccc(O)cc1)NC(=O)[C@@H]1CCCN1)[C@@H](C)O)C(=O)N[C@@H](Cc1c[nH]cn1)C(=O)N[C@H](C(=O)N[C@H](C(N)=O)C(C)C)[C@@H](C)CC [V(−3)Y] (H-PYPD[pY]TSIHIV-NH2)
Kd [1, 4]: 3.3 ± 0.13 µM
Ki [2]: 3.3 ± 0.24 µM
